Where two headings read alike, the source gives them in different places.
Molecular target: HPK1
Assay: HPK1 Lantha Binding Assay ("Lanth")
Outline: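 TR-FRET tracer displacement with 2 nM GST-tagged kinase, 2 nM Eu-anti-GST antibody and 15 nM Tracer222 at 23 C. Enzyme–antibody preincubated 1 h with compound, then tracer added for 1 h; 340 nm excitation, 615/665 nm emission. Ki from Morrison fit over an 11-point 5-fold dilution.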

[1] = Table B1-1, read-out: HPK1 Ki (μM) (Lanth)
[2] = Table B1-2, read-out: HPK1 Ki, L = Lanth

| Ki [1] | Ki [2] | Structure (SMILES) |
| --- | --- | --- |
| 146 nM |  | Cc1ccncc1-c1cc2cc(Nc3cc(C4CC4)n(CCO)n3)ncc2c(N)n1 [Compound 259, 2-(3-[[8-amino-6-(4-methylpyridin-3-yl)-2,7-naphthyridin-3-yl]amino]-5-cyclopropyl-1H-pyrazol-1-yl)ethan-1-ol] |
| 9.46 nM |  | Nc1nc(-c2cnccc2C(F)F)cc2cc(NC(=O)[C@@H]3C[C@@H]3F)ncc12 [Compound 14, (1S,2S)—N-(8-amino-6-(4-(difluoromethyl)pyridin-3-yl)-2,7-naphthyridin-3-yl)-2-fluorocyclopropanecarboxamide] |
| 1.12 nM |  | COCCn1cc([C@H]2C[C@@H]2C(=O)Nc2cc3cc(-c4cnccc4C)nc(N)c3cn2)cn1 [Compound 331, (1S,2S)—N-(8-amino-6-(4-methylpyridin-3-yl)-2,7-naphthyridin-3-yl)-2-(1-(2-methoxyethyl)-1H-pyrazol-4-yl)cyclopropanecarboxamide] |
| 0.1 nM |  | CCc1ccncc1-c1cc2cc(Nc3cnn(C4CCNCC4)c3)ncc2c(N)n1 [Compound 78, 3-(4-Ethylpyridin-3-yl)-N6-(1-piperidin-4-yl-1H-pyrazol-4-yl)-[2,7] naphthyridine-1,6-diamine] |
| 0.173 nM |  | Cc1ccncc1-c1cc2cc(NC(=O)[C@H]3C[C@@H]3C3CNC(=O)O3)ncc2c(N)n1 (stereo partly drawn) [Compound 231, trans-N-(8-amino-6-(4-methylpyridin-3-yl)-2,7-naphthyridin-3-yl)-2-((S)-2-oxooxazolidin-5-yl)cyclopropanecarboxamide] |
| 1.43 nM |  | Cc1ccncc1-c1cc2cc(NC(=O)[C@H]3[C@H](C)[C@@H]3c3cnn(C)c3)ncc2c(N)n1 [Compound 327, (1S,2R,3S)—N-[8-amino-6-(4-methylpyridin-3-yl)-2,7-naphthyridin-3-yl]-2-methyl-3-(1-methyl-1H-pyrazol-4-yl)cyclopropane-1-carboxamide] |
| 1500 nM |  | Cc1ccncc1-c1cc2cc(NC(=O)Nc3ccccc3C#N)ncc2c(N)n1 [Compound 171, 1-[8-amino-6-(4-methyl-3-pyridyl)-2,7-naphthyridin-3-yl]-3-(2-cyanophenyl)urea] |
| 0.0417 nM |  | Cc1ccncc1-c1cc2cc(NC(=O)[C@H]3C[C@@H]3c3cnn(CCOCCN)c3)ncc2c(N)n1 [Compound 292, (1S,2S)—N-[8-amino-6-(4-methylpyridin-3-yl)-2,7-naphthyridin-3-yl]-2-[1-[2-(2-aminoethoxy)ethyl]-1H-pyrazol-4-yl]cyclopropane-1-carboxamide] |
| 0.027 nM |  | Cc1ccncc1-c1cc2cc(NC(=O)[C@H]3C[C@@H]3c3cnn(C)c3)ncc2c(N)n1 [Compound 197, (1S,2S)—N-(8-amino-6-(4-methylpyridin-3-yl)-2,7-naphthyridin-3-yl)-2-(1-methyl-1H-pyrazol-4-yl)cyclopropane-1-carboxamide] |
| 6.19 nM |  | COc1ccc(C)c(-c2cc3cc(NC(=O)[C@H]4C[C@@H]4c4cnn(C)c4)ncc3c(N)n2)c1 [Compound 288, (1S,2S)—N-[8-amino-6-(5-methoxy-2-methylphenyl)-2,7-naphthyridin-3-yl]-2-(1-methyl-1H-pyrazol-4-yl)cyclopropane-1-carboxamide] |
| 0.026 nM |  | NCCOCCn1cc([C@@H]2C[C@H]2C(=O)Nc2cc3cc(-c4c(Cl)cccc4Cl)nc(N)c3cn2)cn1 [Compound 296, (1R,2R)—N-[8-amino-6-(2,6-dichlorophenyl)-2,7-naphthyridin-3-yl]-2-[1-[2-(2-aminoethoxy)ethyl]-1H-pyrazol-4-yl]cyclopropane-1-carboxamide] |
| 0.0455 nM |  | Nc1nc(-c2cnccc2CCO)cc2cc(NC(=O)[C@@H]3C[C@H]3c3cnsc3)ncc12 [Compound 246, (1R,2R)—N-(8-amino-6-(4-(2-hydroxyethyl)pyridin-3-yl)-2,7-naphthyridin-3-yl)-2-(isothiazol-4-yl)cyclopropanecarboxamide] |
| 6.01 nM |  | Cc1ccncc1-c1nc(N)c2cnc(NC(=O)[C@@H]3C[C@H]3c3cn[nH]c3)cc2c1F [Compound 196, (1R,2R)—N-(8-amino-5-fluoro-6-(4-methylpyridin-3-yl)-2,7-naphthyridin-3-yl)-2-(1H-pyrazol-4-yl)cyclopropane-1-carboxamide] |
| 0.695 nM |  | Cc1ccncc1-c1nc(N)c2cnc(NC(=O)C3CC3)cc2c1-c1cn[nH]c1 [Compound 258, N-(8-amino-6-(4-methylpyridin-3-yl)-5-(1H-pyrazol-4-yl)-2,7-naphthyridin-3-yl)cyclopropanecarboxamide] |
| 0.02 nM |  | Cc1ccnc(-c2ccccc2)c1-c1cc2cc(NC(=O)[C@@H]3C[C@H]3c3cnn(C)c3)ncc2c(N)n1 [Compound 319, (1R,2R)—N-(8-amino-6-(4-methyl-2-phenylpyridin-3-yl)-2,7-naphthyridin-3-yl)-2-(1-methyl-1H-pyrazol-4-yl)cyclopropanecarboxamide] |
| 0.0359 nM |  | Cc1ccccc1-c1cc2cc(NC(=O)[C@H]3C[C@@H]3c3cnn(C)c3)ncc2c(N)n1 [Compound 299, (1S,2S)—N-[8-amino-6-(2-methylphenyl)-2,7-naphthyridin-3-yl]-2-(1-methyl-1H-pyrazol-4-yl)cyclopropane-1-carboxamide] |

| Ki [1] | Ki [2] | Structure (SMILES) |
| --- | --- | --- |
| 5.24 nM |  | CCc1ccncc1-c1cc2cc(NC(=O)OCc3ccccc3)ncc2c(N)n1 [Compound 57, Benzyl 8-amino-6-(4-ethylpyridin-3-yl)-2,7-naphthyridin-3-ylcarbamate] |
| 0.184 nM |  | Cc1ccncc1-c1cc2cc(Nc3cnn([C@H]4CCN(C)C4=O)c3)ncc2c(N)n1 [Compound 250, (3S)-3-(4-[[8-amino-6-(4-methylpyridin-3-yl)-2,7-naphthyridin-3-yl]amino]-1H-pyrazol-1-yl)-1-methylpyrrolidin-2-one] |
| 33.9 nM |  | Cc1ccncc1-c1cc2cc(NC(=O)[C@H]3[C@@H]4CN(C5COC5)C[C@@H]43)ncc2c(N)n1 [Compound 255, (exo)-N-[8-amino-6-(4-methylpyridin-3-yl)-2,7-naphthyridin-3-yl]-3-(oxetan-3-yl)-3-azabicyclo[3.1.0]hexane-6-carboxamide] |
| 3.43 nM |  | Cc1ccncc1-c1cc2cc(NC(=O)[C@@H]3C[C@H]3C3CCOCC3)ncc2c(N)n1 [Compound 325, (1R,2S)—N-[8-amino-6-(4-methylpyridin-3-yl)-2,7-naphthyridin-3-yl]-2-(oxan-4-yl)cyclopropane-1-carboxamide] |
| 0.48 nM |  | Cc1ccncc1-c1cc2cc(Nc3cnn(CCO)c3)ncc2c(N)n1 [Compound 169, 2-[4-[[8-amino-6-(4-methyl-3-pyridyl)-2,7-naphthyridin-3-yl]amino]pyrazol-1-yl]ethanol] |
| 1.8 nM |  | CCc1ccncc1-c1cc2cc(NC(=O)c3cnn(C4CCNCC4)c3)ncc2c(N)n1 [Compound 84, 1-Piperidin-4-yl-1H-pyrazole-4-carboxylic acid [8-amino-6-(4-ethylpyridin-3-yl)-[2,7]naphthyridin-3-yl]amide] |
| 0.0692 nM |  | Cc1ccc(C#N)cc1-c1cc2cc(NC(=O)[C@H]3C[C@@H]3c3cnn(C)c3)ncc2c(N)n1 [Compound 301, (1S,2S)—N-[8-amino-6-(5-cyano-2-methylphenyl)-2,7-naphthyridin-3-yl]-2-(1-methyl-1H-pyrazol-4-yl)cyclopropane-1-carboxamide] |
| 839 nM |  | CCc1ccncc1-c1cc2cc(NS(=O)(=O)C3CC3)ncc2c(N)n1 [Compound 79, Cyclopropanesulfonic acid [8-amino-6-(4-ethylpyridin-3-yl)-[2,7]naphthyridin-3-yl]amide] |
| 0.967 nM |  | Cc1ccncc1-c1cc2cc(NC(=O)[C@@H]3C[C@H]3CC#N)ncc2c(N)n1 [Compound 194, (1R,2S)—N-(8-amino-6-(4-methylpyridin-3-yl)-2,7-naphthyridin-3-yl)-2-(cyanomethyl)cyclopropane-1-carboxamide] |
| 1.82 nM |  | Cc1ccc(O)cc1-c1cc2cc(NC(=O)[C@H]3C[C@@H]3c3cnn(C)c3)ncc2c(N)n1 [Compound 286, (1S,2S)—N-[8-amino-6-(5-hydroxy-2-methylphenyl)-2,7-naphthyridin-3-yl]-2-(1-methyl-1H-pyrazol-4-yl)cyclopropane-1-carboxamide] |
| 0.152 nM |  | Cn1cc([C@H]2C[C@@H]2C(=O)Nc2cc3cc(-c4ccccc4Cl)nc(N)c3cn2)cn1 [Compound 305, (1R,2R)—N-[8-amino-6-(2-chlorophenyl)-2,7-naphthyridin-3-yl]-2-(1-methyl-H-pyrazol-4-yl)cyclopropane-1-carboxamide] |
|  | 0.083 nM | Cc1cccc(F)c1-c1cc2cc(NC(=O)[C@@H]3[C@@H](C)[C@H]3c3cnn(C)c3)ncc2c(N)n1 [Compound 354, (1R,2S,3R)—N-[8-amino-6-(2-fluoro-6-methylphenyl)-2,7-naphthyridin-3-yl]-2-methyl-3-(1-methyl-1H-pyrazol-4-yl)cyclopropane-1-carboxamide] |
| 31.2 nM |  | Cc1ccncc1-c1cc2cc(NC(=O)[C@H]3C[C@@H]3C(C)(C)O)ncc2c(N)n1 [Compound 242, (1S,2S)—N-[8-amino-6-(4-methylpyridin-3-yl)-2,7-naphthyridin-3-yl]-2-(2-hydroxypropan-2-yl)cyclopropane-1-carboxamide] |
| 4 nM |  | C[C@H]1COC(=O)N1c1cc2cc(NC(=O)[C@@H]3C[C@H]3C#N)ncc2c(N)n1 [Compound 186, trans-N-(8-amino-6-((S)-4-methyl-2-oxooxazolidin-3-yl)-2,7-naphthyridin-3-yl)-2-cyanocyclopropanecarboxamide] |
| 5.42 nM |  | Nc1nc(-c2cnccc2CCO)cc2cc(NC(=O)[C@H]3C[C@@H]3c3cnsc3)ncc12 [Compound 245, (1S,2S)—N-(8-amino-6-(4-(2-hydroxyethyl)pyridin-3-yl)-2,7-naphthyridin-3-yl)-2-(isothiazol-4-yl)cyclopropanecarboxamide] |
|  | 1.4 nM | CC1=CN(C)C(=O)Cc2nc(Nc3cc4cc(-c5cnccc5C)nc(N)c4cn3)ccc21 [Compound 418, 2-((8-amino-6-(4-methylpyridin-3-yl)-2,7-naphthyridin-3-yl)amino)-5,7-dimethyl-7,9-dihydro-8H-pyrido[2,3-d]azepin-8-one] |

Reference: patent US11034692B1 (Genentech, Inc., priority 2017, dated 2021)
